Source: the NIST ThermoML archive (doi:10.1016/j.jct.2010.02.001)

Key:
[1] = refractive index (Na D-line) (dimensionless); xn = mol fraction of the nth substance listed; conditions: 293.15 K, 101 kPa, Liquid, Standard Abbe refractometry
[2] = Liquid, Ebulliometric method (Recirculating still)

CCCO [propan-1-ol] + CCCCO
Conditions	refractive index
[1], x1 = 1	1.3841

CCCCO [butan-1-ol]
[2]
Conditions	vapor or sublimation pressure [kPa]
356.35 K	25.3
359.45 K	29.3
362.95 K	33.5
368.6 K	42.8
373.45 K	52.5
377.3 K	61.2
381.9 K	72.8
386.05 K	84.9
391.95 K	105.3
395.8 K	120.1

CCCCO [butan-1-ol] + CCCO
[1]
Conditions	refractive index
x2 = 0	1.3992
x2 = 0.0852	1.3979
x2 = 0.1369	1.3971
x2 = 0.1987	1.3962
x2 = 0.2741	1.395
x2 = 0.3521	1.3939
x2 = 0.4218	1.3928
x2 = 0.5	1.3916
x2 = 0.5742	1.3905
x2 = 0.6588	1.3892
x2 = 0.7123	1.3884
x2 = 0.7986	1.3871
x2 = 0.862	1.3862
x2 = 0.936	1.385

CCCO [propan-1-ol]
[2]
Conditions	vapor or sublimation pressure [kPa]
337.95 K	25.6
341.35 K	30.1
346.15 K	37.4
350.8 K	46
353.25 K	51.1
357.35 K	60.7
362.45 K	74.7
366.25 K	86.8
370.4 K	101.8
373.65 K	114.9
